Results from patent US20230157288A1, “PEST CONTROL METHOD, PEST CONTROL AGENT COMPOSITION, AND PEST CONTROL AGENT SET” (priority 2020, published 2023).
Structures can show the parent of a compound that is named as a salt. Where two headings read alike, the source gives them in different places.

Experiments:
Assay type in all cases: in vivo
Plutella xylostella = assay: Test for confirming effect on Plutella xylostella (cabbage leaf immersion, insecticidal rate); conditions: single chemical
Experimental: Test for Confirming Effect on Plutella xylostella
A flowable agent containing the compound A was diluted with water containing RABIDEN® 3S diluted 5000 times to prepare chemical solutions A containing the compound A at twice concentrations described in Table 3.
A preparation containing the compound B or a flowable agent containing the compound B was diluted with water containing RABIDEN 3S diluted 5000 times to prepare chemical solutions B containing the compound B at twice concentrations described in Table 3, respectively.
Cabbage leaves were immersed in a mixed solution obtained by mixing the chemical solution A and the chemical solution B in an equivalent amount for 30 seconds, and these cabbage leaves were placed in a petri dish, and five second-instar Plutella xylostella larvae were released (AB mixture application plot).
(§1) The chemical solution A and the chemical solution B were twice diluted with the water containing RABIDEN 3S diluted 5000 times to obtain a chemical solution A′ and a chemical solution B′.
Cabbage leaves were immersed in the chemical solution A′ for 30 seconds, and these cabbage leaves were placed in another petri dish, and five second-instar Plutella xylostella larvae were released (A single application plot). Cabbage leaves were immersed in the chemical solution B′ for 30 seconds, and these cabbage leaves were placed in another petri dish, and five second-instar Plutella xylostella larvae were released (B single application plot).
Then, these petri dishes were placed in a thermostatic chamber at a temperature of 25° C. and a humidity of 60%. Three days after the larva release, viability determination was performed, and the insecticidal rate was calculated by the following equation. The test was repeated twice.
(§2) Insecticidal rate (%)=(the number of dead insects/the number of tested insects)×100
(§3) To show the degree of a synergistic effect, the “effectiveness expectation” was calculated based on the Colby method. When the effectiveness is higher than the “effectiveness expectation”, it is determined that there is a synergistic effect.
(§4) Expectation of insecticidal rate (%) (E)=X+Y−XY/100
(§5) X: measurement of insecticidal rate in B single application plot (%)
(§6) Y: measurement of insecticidal rate in A single application plot (%)

Phyllotreta striolata = assay: Test for confirming effect on Phyllotreta striolata (bok choy seedling sprinkling, insecticidal rate)
Experimental: Test for Confirming Effect on Phyllotreta striolata
A flowable agent containing the compound A was diluted with water containing RABIDEN 3S diluted 5000 times to prepare chemical solutions A containing the compound A at twice concentrations described in Table 5.
A preparation containing the compound B or a flowable agent containing the compound B was diluted with water containing RABIDEN 3S diluted 5000 times to prepare chemical solutions B containing the compound B at twice concentrations described in Table 5.
A mixed solution obtained by mixing the chemical solution A and the chemical solution B in an equivalent amount was sprinkled on bok choy seedlings (at the seventh true leaf stage) planted in 9-cm pots. After air dry, these bok choy seedlings were placed in plastic cups, and ten Phyllotreta striolata imagoes were released (AB mixture application plot).
as §1
The chemical solution A′ was sprinkled on bok choy seedlings (at the seventh true leaf stage) planted in 9-cm pots. After air dry, these bok choy seedlings were placed in plastic cups, and ten Phyllotreta striolata imagoes were released (A single application plot). The chemical solution B′ was sprinkled on bok choy seedlings (at the seventh true leaf stage) planted in 9-cm pots. After air dry, these bok choy seedlings were placed in plastic cups, and ten Phyllotreta striolata imagoes were released (B single application plot).
Then, the bok choy seedlings sprinkled with the chemical solutions were placed in a thermostatic chamber at a temperature of 25° C. and a humidity of 60%, viability determination was performed 6 days after the insect release, and the insecticidal rate was calculated by the following equation. The test was repeated twice.
Insecticidal rate (%)=(the number of the dead insects/the number of tested insects)×100
as §3, §4, §5, §6

Aphis gossypii = assay: Test for confirming effect on Aphis gossypii (cucumber sprinkling, insecticidal rate)
Experimental: Test for confirming effect on Aphis gossypii A flowable agent containing the compound A was diluted with water containing RABIDEN 3S diluted 5000 times to prepare chemical solutions A containing the compound A at twice concentrations described in Table 4.
A preparation containing the compound B or a flowable agent containing the compound B was diluted with water containing RABIDEN 3S diluted 5000 times to prepare chemical solutions B containing the compound B at twice concentrations described in Table 4.
First, 9-cm pots were sown with cucumbers. Aphis gossypii female imagoes were released on the cucumbers 10 days after the sprouting. The borne first-instar larvae were left, and the female imagoes were removed on the next day. A mixed solution obtained by mixing the chemical solution A and the chemical solution B in an equivalent amount was sprinkled on the cucumbers (AB mixture application plot).
as §1
The chemical solution A′ was sprinkled on the cucumbers sown with the first-instar larvae by the same method as in the AB mixture application plot (A single application plot). The chemical solution B′ was sprinkled on the cucumbers sown with the first-instar larvae by the same method as in the AB mixture application plot (B single application plot).
Then, the cucumbers sprinkled with the chemical solutions were placed in a thermostatic chamber at a temperature of 25° C. and a humidity of 60%, the viability of the Aphis gossypii was inspected after 6 days, and the insecticidal rate was calculated by the following equation. The test was repeated twice.
as §2, §3, §4, §5, §6

[1] = Plutella xylostella, read-out: Effectiveness Measurement (insecticidal rate)
[2] = Aphis gossypii, 144 h, single chemical, 0.12 ppm, after 6 days, read-out: Effectiveness Measurement (insecticidal rate)
[3] = Aphis gossypii, 144 h, single chemical, 2 ppm, after 6 days, read-out: Effectiveness Measurement (insecticidal rate)
[4] = Phyllotreta striolata, 144 h, single application, 31 ppm, Phyllotreta striolata imagoes, 6 days after release, read-out: Effectiveness Measurement (insecticidal rate)
[5] = single chemical, 0.12 ppm, after 6 days
[6] = Phyllotreta striolata, 144 h, single application, Phyllotreta striolata imagoes, 6 days after release, read-out: Effectiveness Measurement (insecticidal rate)
[7] = Plutella xylostella, 0.5 ppm, read-out: Effectiveness Measurement (insecticidal rate)
[8] = Aphis gossypii, 144 h, single chemical, after 6 days, read-out: Effectiveness Measurement (insecticidal rate)

For N#Cc1ccc(CC(=NNC(=O)Nc2ccc(OC(F)(F)F)cc2)c2cccc(C(F)(F)F)c2)cc1 (mixture of isomers) [Metaflumizone, metaflumizone], the “Effectiveness Measurement (insecticidal rate)” value (shortened to “Effectiveness Measurement”) (Plutella xylostella; 0.5 ppm) was 20% and the “Effectiveness Measurement” value (Phyllotreta striolata; single application, 31 ppm, Phyllotreta striolata imagoes, 6 days after release) was 40%.

Cc1c(COC(=O)[C@@H]2[C@H](/C=C(\Cl)C(F)(F)F)C2(C)C)cccc1-c1ccccc1 (racemic) [Bifenthrin] showed a pest or weed control at 125 ppm (Plutella xylostella; Plutella xylostella, 125 ppm, read-out: Effectiveness Measurement (insecticidal rate)) of 40% and a pest or weed control at 0.03 ppm (Aphis gossypii; Aphis gossypii, 144 h, single chemical, 0.03 ppm, after 6 days, read-out: Effectiveness Measurement (insecticidal rate)) of 42%.

Compound COP(=O)(NC(C)=O)SC (stereo not shown) [Acephate, acephate] has a pest or weed control at 31 ppm (Aphis gossypii; Aphis gossypii, 144 h, read-out: Effectiveness Measurement (insecticidal rate)) of 50% and a pest or weed control at 8 ppm (Phyllotreta striolata; Phyllotreta striolata, 144 h, read-out: Effectiveness Measurement (insecticidal rate)) of 40%.

C/C(=N\C#N)N(C)Cc1ccc(Cl)nc1 [Acetamiprid, acetamiprid] showed a pest or weed control at 8 ppm (Plutella xylostella; [1]) of 10%, a pest or weed control at 0.12 ppm (Aphis gossypii; [2]) of 40% and a pest or weed control at 8 ppm (Phyllotreta striolata; Phyllotreta striolata, 144 h, single application, 8 ppm, Phyllotreta striolata imagoes, 6 days after release, read-out: Effectiveness Measurement (insecticidal rate)) of 20%.

For CC(C)N1C(=O)N(c2ccccc2)CS/C1=N\C(C)(C)C [Buprofezin], the pest or weed control at 31 ppm (Aphis gossypii; Aphis gossypii, 144 h, single chemical, 31 ppm, after 6 days, read-out: Effectiveness Measurement (insecticidal rate)) was 33%.

CNC(=O)Oc1cccc2c1OC(C)(C)C2 [Carbofuran, carbofuran] gave a pest or weed control at 2 ppm (Plutella xylostella; [1]) of 10%, a pest or weed control at 2 ppm (Aphis gossypii; [3]) of 14% and a pest or weed control at 31 ppm (Phyllotreta striolata; [4]) of 20%.

Work on CN(C)C(CSC(N)=O)CSC(N)=O [Cartap hydrochloride, cartap hydrochloride] yielded a pest or weed control at 2 ppm (Plutella xylostella; [1]) of 40% and a pest or weed control at 31 ppm (Phyllotreta striolata; [4]) of 60%.

Compound CCOCn1c(-c2ccc(Cl)cc2)c(C#N)c(Br)c1C(F)(F)F [Chlorfenapyr, chlorfenapyr] has a pest or weed control at 2 ppm (Plutella xylostella; [1]) of 20%, a pest or weed control at 2 ppm (Aphis gossypii; [3]) of 6% and a pest or weed control at 2 ppm (Phyllotreta striolata; Phyllotreta striolata, 144 h, single application, 2 ppm, Phyllotreta striolata imagoes, 6 days after release, read-out: Effectiveness Measurement (insecticidal rate)) of 40%.

CCS(=O)(=O)c1cc(C2CC2)cnc1-c1ncc(C=C(Cl)C(F)(F)F)n1C [Compound (II)] was tested, and the pest or weed control at 0.12 ppm (Plutella xylostella; Plutella xylostella, 0.12 ppm, read-out: Effectiveness Measurement (insecticidal rate)) was 10%, the “Effectiveness Measurement” value (Plutella xylostella; 0.12 ppm) was 10% and the pest or weed control at 0.12 ppm (Aphis gossypii; [2]) was 18%. The “Effectiveness Measurement” value (Aphis gossypii; [5]) was 18% and the pest or weed control at 0.5 ppm (Phyllotreta striolata; [6]) was 20%.

In the case of CCS(=O)(=O)c1cc(C2CC2)cnc1-c1ncc(C(F)C(F)(C(F)(F)F)C(F)(F)F)n1C (stereo not shown) [Compound (III)], the pest or weed control at 0.5 ppm (Plutella xylostella; [7]) is reported as 40%, the pest or weed control at 0.5 ppm (Aphis gossypii; [8]) is reported as 31% and the pest or weed control at 0.5 ppm (Phyllotreta striolata; [6]) is reported as 20%.

In the case of CCS(=O)(=O)c1cc(C(F)(F)F)cnc1-c1ncc(/C=C(\Cl)C(F)(F)C(F)(F)F)n1C [Compound (IV)], the pest or weed control at 0.03 ppm (Plutella xylostella; Plutella xylostella, 0.03 ppm, read-out: Effectiveness Measurement (insecticidal rate)) is reported as 20%, the pest or weed control at 0.5 ppm (Aphis gossypii; [8]) is reported as 64% and the pest or weed control at 0.5 ppm (Phyllotreta striolata; [6]) is reported as 10%.

For CNC(=O)c1cc(C#N)cc(C)c1NC(=O)c1cc(Br)nn1-c1ncccc1Cl [Cyantraniliprole, cyantraniliprole], the pest or weed control at 8 ppm (Plutella xylostella; [1]) was 10%, the pest or weed control at 0.12 ppm (Aphis gossypii; [2]) was 50% and the pest or weed control at 0.5 ppm (Phyllotreta striolata; [6]) was 20%.

Work on N#Cc1nn(-c2c(Cl)cc(C(F)(F)F)cc2Cl)c(N)c1[S+]([O-])C(F)(F)F (stereo not shown) [Fipronil, fipronil] yielded a pest or weed control at 0.5 ppm (Plutella xylostella; [7]) of 40%, a pest or weed control at 0.5 ppm (Aphis gossypii; [8]) of 29% and a pest or weed control at 0.12 ppm (Phyllotreta striolata; Phyllotreta striolata, 144 h, single application, 0.12 ppm, Phyllotreta striolata imagoes, 6 days after release, read-out: Effectiveness Measurement (insecticidal rate)) of 20%.

N#CCNC(=O)c1cnccc1C(F)(F)F [Flonicamid] was tested, and the “Effectiveness Measurement” value (Aphis gossypii; [5]) was 21%.

For CON=CNC(=O)c1ccc(C2=NOC(c3cc(Cl)cc(Cl)c3)(C(F)(F)F)C2)cc1C (stereo not shown) [Fluxametamide, fluxametamide], the “Effectiveness Measurement” value (Plutella xylostella; 0.12 ppm) was 40%, the “Effectiveness Measurement” value (Aphis gossypii; single chemical, 2 ppm, after 6 days) was 60% and the “Effectiveness Measurement” value (Phyllotreta striolata; single application, 2 ppm, Phyllotreta striolata imagoes, 6 days after release) was 20%.

CC1=NNC(=O)N(/N=C/c2cccnc2)C1 [Pymetrozine] was tested, and the pest or weed control at 0.12 ppm (Aphis gossypii; [2]) was 68%.

In the case of CCc1ccc(C(=O)NN(C(=O)c2cc(C)cc(C)c2)C(C)(C)C)cc1 [Tebufenozide], the pest or weed control at 31 ppm (Plutella xylostella; Plutella xylostella, 31 ppm, read-out: Effectiveness Measurement (insecticidal rate)) is reported as 40%.

In the case of O=C(NC(=O)c1c(F)cccc1F)Nc1cc(Cl)c(F)c(Cl)c1F [Teflubenzuron], the pest or weed control at 0.5 ppm (Plutella xylostella; [7]) is reported as 40%.

CCc1nn(C)c(C(=O)NCc2ccc(Oc3ccc(C)cc3)cc2)c1Cl [Tolfenpyrad] showed a pest or weed control at 8 ppm (Plutella xylostella; [1]) of 20% and a pest or weed control at 0.12 ppm (Aphis gossypii; [2]) of 18%.

For Abamectin, the “Effectiveness Measurement” value (Plutella xylostella; 0.5 ppm) was 40%.

For Spinetoram, the “Effectiveness Measurement” value (Plutella xylostella; 0.0076 ppm) was 40%.
